pIC50: −log10 of the molar value. Each block holds one molecule with its values, some of them ahead of it.
What was measured:
[1] = Plasma pharmacokinetics after i.v. injection (LC-MS/MS); format: in vivo; details: Swiss CD1, mouse, iv, mice
Procedure: (§1) Mice were sacrificed at different time points up to 48 h after the injection and blood and brain were harvested. Blood was collected from the cava vein in tubes coated with Li-heparin anticoagulant and centrifuged at +4 °C, 3000 g for 10 min to obtain the plasma. After blood collection, brain was harvested, washed in saline, dried on absorbent paper, weighed, and placed into appropriate tubes. All samples were analyzed for their Givinostat content using the LC-MS/MS method. Stock solution of Givinostat, […]2375 (metabolites), and internal standard ITF2400 were prepared in ACN/water 1:1 at 1 mg/mL. Working solutions were prepared by sequential dilution in water:ACN 8:2. Brains were homogenized in 20 mM ammonium formate buffer (1 g/5 mL). In total, 45 μL of blank plasma or brain homogenates was added to 200 μL of ACN containing ITF2400 at 25 ng/mL and acted as internal standards. Samples were vortexed for 3 min and centrifuged for 10 min at 5 °C at […]. Samples were transferred into a 96-well plate, dried under nitrogen flow, and resuspended in 200 μL 0.1% FA H2O/ACN (75:25). After vortexing, samples were injected into LC-MS/MS. Samples were analyzed on a UPLC Acquity (Waters, Milford, MA, USA) coupled with an API 3200 Triple Quadrupole (ABSciex). Mobile phases were water and ACN with 0.1% FA on a Kinetex 2.6 μm C18 100 A 75 × 3 mm (Phenomenex, Torrance, CA, USA). Analytes were quantified in MRM ESI positive mode. […] Pharmacokinetic parameters were calculated using Excel Add in (PK Solver 2.0, Excel 2007 Microsoft add in). AUCs were calculated using an NCA by the linear trapezoidal rule, and a uniform weight was performed as a first approach. Graphical concentration-time curves were produced after Log transformation. The ke was estimated from the terminal part of the log-concentration-time plot including at least three data points excluding the Cmax.

[2] = Brain penetration after i.v. injection (LC-MS/MS); format: in vivo, Swiss CD1 mice; details: mice
Procedure: as §1

Gli36ΔEGFR-2 = experiment: MTT cytotoxicity, GBM cells; format: cell-based; details: Homo sapiens, 24 h of treatment, read-out: mean calculated IC50
Procedure: (§2) Gli36ΔEGFR-2 and U87-MG were used as GBM in vitro models. Gli36ΔEGFR [27, 28], carrying the EGFRvIII mutation, was made resistant to TMZ after 1 month of in vitro exposure to 50 µM TMZ [29]. These cells were selected because the TMZ sensitivity was repeatedly tested in vitro and in vivo in orthotopic GBM models. Both Gli36ΔEGFR-2 and U87-MG were maintained in Dulbecco’s Modified Eagle Medium (DMEM) High Glucose w/o sodium pyruvate (ECM0101L, Euroclone, Milan, Italy) supplemented with 10% fetal bovine serum (FBS, ECS0180L, Euroclone, Milan, Italy), 4 mM L-glutamine (ECB3000D, Euroclone, Milan, Italy), and 100 U ml^−1 penicillin/streptomycin (P/S) (ECB3001B, Euroclone, Milan, Italy). Normal human astrocytes (NHAs, CC-2565, Lonza, Basel, Switzerland) were used as healthy astrocytes and maintained in AGM^TM Astrocyte Growth Medium BulletKit^TM (CC-3186, Lonza) as per the manufacturer’s protocol. Human cerebral microvascular endothelial cells (hCMECs), provided by Dr. S. Bourdoulous (Institut Cochin, Inserm, Paris, France), were used as a model of brain endothelial cells and cultured as reported in the literature. […]
(§3) The effect of free or encapsulated Givinostat was assessed by the MTT assay. […] At the designated times, the assay was performed as per the manufacturer’s protocol and absorbance was measured at 570 nm using a microplate reader (SPECTROstar Nano, BMG LABTECH, Ortenberg, Germany). […]

[3] = MTT cytotoxicity, healthy astrocytes; format: cell-based; details: human, normal human astrocytes (NHA), doses between 0.1 and 10 μM, read-out: cell viability
Procedure: as §2, §3

LDLR = experiment: Immunoblot of receptor level in Gli36ΔEGFR-2; format: cell-based, human; details: Western blot; Figure 8 legend: LIP-GIV
Procedure: (§4) Whole cell lysates were obtained by washing cells twice in cold PBS and harvesting in 60 μL of radioimmunoprecipitation assay (RIPA) buffer (cat. no. 89901, ThermoFisher) supplemented with 1% of protease and phosphatase inhibitor cocktail (cat. no. 78446, ThermoFisher). Whole cell lysates were quantified using a BCA Protein Assay Kit (cat. No. 23227, ThermoFisher) and separated by electrophoresis through precast gels (NuPAGE^TM 4–12% Bis-Tris, 1.0 mm, Mini Protein Gel 10 or 15-wells, cat. No. NP0321 and NP0323, ThermoFisher).
(§5) Proteins were transferred to nitrocellulose membranes using iBlot^TM Transfer Stack (cat. No. IB301002, ThermoFisher) and membranes were blocked either in 5% milk or in 5% BSA in TBS with 0.1% Tween-20 (TBST) for 1 h. Membranes were then incubated overnight at 4 °C with the following primary antibodies: Acetyl-α-Tubulin (5335, 1:1000), α-Tubulin (2144, 1:1000), Histone H3 (9715, 1:1000) and β-Tubulin (2146, 1:1000) purchased from CST; β-Actin (MA5-15739, 1:5000), GAPDH (MA1-16757, 1:5000), VLDLR (MA5-24790, 1:1000), ABCA1 (PA1-16789, 1:500), LRP1 (MA1-27198, 1:500), and LDLR (PA5-22976, 1:1000) purchased from ThermoFisher. Membranes were incubated with secondary anti-rabbit antibody (A0545, 1:5000, Merck) or anti-mouse antibody (G21040, 1:20,000, Invitrogen) for 1 h at RT. Bands were detected using Immobilion ECL Ultra Western HRP Substrate (WBULS0100, Merck) under chemiluminescence using an Amersham Imager 600 (Cytiva, Marlborough MA, USA). Quantifications were made using ImageLab Software Version 6.1 (Bio-Rad, www.bio-rad.com).

LRP1 = experiment: Immunoblot of receptor level in Gli36ΔEGFR-2; format: cell-based, human; details: Western blot; Figure 8 legend: LIP-GIV
Procedure: as §4, §5

VLDLR = experiment: Immunoblot of receptor level in Gli36ΔEGFR-2; format: cell-based, human; details: Western blot; Figure 8 legend: LIP-GIV
Procedure: as §4, §5

ABCA1 = experiment: Immunoblot of ABCA1 level in Gli36ΔEGFR-2; format: cell-based, human; details: Western blot; Figure 8 legend: LIP-GIV, 24 h
Procedure: as §4
Proteins were transferred to nitrocellulose membranes using iBlot^TM Transfer Stack (cat. No. IB301002, ThermoFisher) and membranes were blocked either in 5% milk or in 5% BSA in TBS with 0.1% Tween-20 (TBST) for 1 h. […] Bands were detected using Immobilion ECL Ultra Western HRP Substrate (WBULS0100, Merck) under chemiluminescence using an Amersham Imager 600 (Cytiva, Marlborough MA, USA). Quantifications were made using ImageLab Software Version 6.1 (Bio-Rad, www.bio-rad.com).

U87-MG = tested on: U87-MG; set-up: method as in PMID 25053824; details: cited from earlier work
T98G = tested on: T98G; set-up: method as in PMID 25053824; details: cited from earlier work

- concentration at 5 min ([1]; 7.5 mg/kg i.v., 5 min, read-out: Givinostat plasma level): 1030 ng/mL
- concentration at 10 min ([1]; 7.5 mg/kg i.v., 10 min, read-out: Givinostat plasma level): 597 ng/mL
- concentration at 0.25 h ([1]; 7.5 mg/kg i.v., 0.25 h, read-out: Givinostat plasma level): 431 ng/mL
- concentration at 0.5 h ([1]; 7.5 mg/kg i.v., 0.5 h, read-out: Givinostat plasma level): 256 ng/mL
- concentration at 1 h ([1]; 7.5 mg/kg i.v., 1 h, read-out: Givinostat plasma level): 75 ng/mL
- concentration at 2 h ([1]; 7.5 mg/kg i.v., 2 h, read-out: Givinostat plasma level): 19 ng/mL
- concentration at 4 h ([1]; 7.5 mg/kg i.v., 4 h, read-out: Givinostat plasma level): 6 ng/mL
- concentration at 6 h ([1]; 7.5 mg/kg i.v., 6 h, read-out: Givinostat plasma level): 4 ng/mL
- MRT last ([1]; 7.5 mg/kg single i.v., read-out: mean residence time (MRT0-t)): 0.6 h
- clearance ([1]; 7.5 mg/kg single i.v., read-out: plasma clearance (CL) (converted)): 257 mL/min/kg
- AUC(0-t) ([1]; 7.5 mg/kg single i.v., read-out: plasma exposure (AUC0-t)): 478 ng·h/mL
- Vd ([1]; 7.5 mg/kg single i.v., read-out: volume of distribution): 10.8 L/kg
- half-life ([1]; Givinostat 7.5 mg/kg single i.v., read-out: half-life (t1/2) (converted)): 1.7 h
- Kp ([2]; Swiss CD1, mouse, brain and plasma, iv, 7.5 mg/kg single i.v., read-out: AUCbrain/AUCplasma ratio): 0.372
- concentration at 5 min ([2]; Swiss CD1, mouse, brain, iv, 7.5 mg/kg i.v., 5 min, read-out: Givinostat brain level): 102 ng/g
- concentration at 10 min ([2]; Swiss CD1, mouse, brain, iv, 7.5 mg/kg i.v., 10 min, read-out: Givinostat brain level): 101 ng/g
- concentration at 0.25 h ([2]; Swiss CD1, mouse, brain, iv, 7.5 mg/kg i.v., 0.25 h, read-out: Givinostat brain level): 90 ng/g
- concentration at 0.5 h ([2]; Swiss CD1, mouse, brain, iv, 7.5 mg/kg i.v., 0.5 h, read-out: Givinostat brain level): 83 ng/g
- concentration at 1 h ([2]; Swiss CD1, mouse, brain, iv, 7.5 mg/kg i.v., 1 h, read-out: Givinostat brain level): 44 ng/g
- concentration at 2 h ([2]; Swiss CD1, mouse, brain, iv, 7.5 mg/kg i.v., 2 h, read-out: Givinostat brain level): 30 ng/g
- concentration at 4 h ([2]; Swiss CD1, mouse, brain, iv, 7.5 mg/kg i.v., 4 h, read-out: Givinostat brain level): 13 ng/g
- concentration at 6 h ([2]; Swiss CD1, mouse, brain, iv, 7.5 mg/kg i.v., 6 h, read-out: Givinostat brain level): 7 ng/g
- Cmax ([2]; Swiss CD1, mouse, brain, iv, 7.5 mg/kg single i.v.): ~100 ng/g
- Givinostat brain level ([2]; 7.5 mg/kg i.v., 24 h): below detection limits
- LDLR protein level (LDLR): significantly reduced
- LRP1 protein level (LRP1): significantly reduced
- VLDLR protein level (VLDLR): significantly reduced
Compound: CCN(CC)Cc1ccc2cc(COC(=O)Nc3ccc(C(=O)NO)cc3)ccc2c1 [Givinostat, [6-diethylaminomethyl) naphtalen-2-yl] methyl N-[4-(hydroxycarbamoyl) phenyl] carbamate]
- pIC50 (Gli36ΔEGFR-2): 6.12
- viability at 24 h [3]: ≥ 100%
- ABCA1 expression (ABCA1): non-significant trend towards a decrease

Compound: Cn1nnc2c(C(N)=O)ncn2c1=O [TMZ, temozolomide]
- pIC50 (U87-MG): 3.30 to 4.00
- pIC50 (T98G): 3.30 to 4.00

Reference: paper PMC9220922, “Givinostat-Liposomes: Anti-Tumor Effect on 2D and 3D Glioblastoma Models and Pharmacokinetics” (Cancers, 2022)
